Reference: article PMC11003481, “Synthesis, biological evaluation, and computational studies of N-benzyl pyridinium–curcumin derivatives as potent AChE inhibitors with antioxidant activity” (Journal of Enzyme Inhibition and Medicinal Chemistry, 2023)

Tests used:
[1] = target: acetylcholinesterase (eeAChE, from Electrophorus electricus) (Electrophorus electricus, UniProt O42275); assay: biochemical; conditions: for Selectivity Index (SI) (AChE): Selectivity ratio [IC50(BChE)/IC50(AChE)]; for IC50: eeAChE, mean ± SEM of three independent experiments, duplicate samples, read-out: IC50 ± SEM AChE
Experimental: (§1) The AChE and BChE inhibitory activity assays were performed using a BioTek Epoch 2 microplate spectrophotometer in clear, flat-bottom 96-well plates. […] To each well, 295 µL phosphate buffer pH 8.0, 10 µL enzyme solution (AChE/BChE), and 10 µL target compound solutions were added together and allowed to stand for 4 min at room temperature. Then, 10 µL of 0.01 M solution freshly prepared Ellman’s reagent 5,5′-dithiobis(2-nitrobenzoic acid) (DTNB) was added to each well. The reaction in the wells was started by the addition of 2 µL of 0.075 M solution freshly prepared substrate (ATCh (acetylthiocholine iodide)/BTCh (S-butyrylthiocholine iodide)) solution. The solution was mixed immediately and incubated for 2:30 min for AChE or for 5 min for BChE inside the microplate reader at 26 °C. […] The IC50 values were calculated graphically by nonlinear regression analysis of inhibition curves that were obtained by plotting the logarithm of the inhibitor concentrations versus the percentage of inhibition (log(inhibitor) vs. normalised response) using GraphPad Prism 8 software (See Supplementary Information for details).

[2] = target: T1, butyrylcholinesterase (eqBChE, from equine serum) (Equus caballus, UniProt P81908); assay: biochemical; conditions: mean ± SEM of three independent experiments, duplicate samples, read-out: IC50 ± SEM BChE
T1 construct: butyrylcholinesterase (eqBChE, from equine serum); from tissue; host or cells: equine serum
Experimental: as §1

[3] = ABTS radical cation decolorisation antioxidant assay
Experimental: The antioxidant activity was determined using a radical cation (ABTS^.+) decolorisation assay, as described by Xiao et al.[21] with a few modifications. The assay used a BioTek Epoch 2 microplate spectrophotometer (Agilent, USA) with clear, flat-bottom 96-well plates. The 7 mmol/L ABTS^.+ stock solution was prepared by dissolving 96.02 mg ABTS in acetic acid buffer (pH 4.5) and to a final volume of 25 ml, which was kept in the dark at 0–4 °C. A 2.45 mmol/L potassium persulfate (K2S2O8) stock solution was prepared by dissolving 66.24 mg K2S2O8 in acetic acid buffer solution with pH 4.5, and then diluted to 100 ml and kept in the dark at 0–4 °C. The ABTS working solution was prepared by mixing similar quantities of 7 mmol/L ABTS and 2.45 mmol/L K2S2O8. This solution was stored in a dark cabinet for 16 h before use, when it was diluted with distilled water to obtain an absorbance of 0.70 at 734 nm. In a clear, flat-bottom 96-well plate, 200 μL of ABTS working solution and 10.0 μL sample solution at different concentrations (0.0312–0.5 mg/mL) were mixed well and incubated in the dark for 7 min before the absorbance was measured at 734 nm using a microplate reader. A blank was run for each assay, and all measurements were performed after 7 min. The ABTS scavenging capacity of inhibitors was compared with that of trolox and α-tocopherol. […]

T1 sequence (P81908 whole entry): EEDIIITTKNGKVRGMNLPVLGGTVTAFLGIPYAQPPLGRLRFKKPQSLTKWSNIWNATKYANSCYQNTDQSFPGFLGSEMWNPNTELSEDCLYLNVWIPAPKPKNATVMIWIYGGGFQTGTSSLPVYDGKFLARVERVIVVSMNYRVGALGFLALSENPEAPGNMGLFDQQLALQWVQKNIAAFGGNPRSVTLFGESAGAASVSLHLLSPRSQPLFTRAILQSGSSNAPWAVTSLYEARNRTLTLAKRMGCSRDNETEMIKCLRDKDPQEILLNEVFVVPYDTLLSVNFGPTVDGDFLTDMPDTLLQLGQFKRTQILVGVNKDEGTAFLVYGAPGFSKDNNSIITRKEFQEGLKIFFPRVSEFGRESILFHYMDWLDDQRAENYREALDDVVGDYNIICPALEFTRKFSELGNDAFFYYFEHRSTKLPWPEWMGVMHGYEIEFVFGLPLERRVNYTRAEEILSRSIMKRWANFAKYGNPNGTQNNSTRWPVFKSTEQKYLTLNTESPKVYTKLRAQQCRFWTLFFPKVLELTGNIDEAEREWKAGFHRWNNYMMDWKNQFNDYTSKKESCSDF
Sequence of acetylcholinesterase (eeAChE, from Electrophorus electricus) (O42275 24-633): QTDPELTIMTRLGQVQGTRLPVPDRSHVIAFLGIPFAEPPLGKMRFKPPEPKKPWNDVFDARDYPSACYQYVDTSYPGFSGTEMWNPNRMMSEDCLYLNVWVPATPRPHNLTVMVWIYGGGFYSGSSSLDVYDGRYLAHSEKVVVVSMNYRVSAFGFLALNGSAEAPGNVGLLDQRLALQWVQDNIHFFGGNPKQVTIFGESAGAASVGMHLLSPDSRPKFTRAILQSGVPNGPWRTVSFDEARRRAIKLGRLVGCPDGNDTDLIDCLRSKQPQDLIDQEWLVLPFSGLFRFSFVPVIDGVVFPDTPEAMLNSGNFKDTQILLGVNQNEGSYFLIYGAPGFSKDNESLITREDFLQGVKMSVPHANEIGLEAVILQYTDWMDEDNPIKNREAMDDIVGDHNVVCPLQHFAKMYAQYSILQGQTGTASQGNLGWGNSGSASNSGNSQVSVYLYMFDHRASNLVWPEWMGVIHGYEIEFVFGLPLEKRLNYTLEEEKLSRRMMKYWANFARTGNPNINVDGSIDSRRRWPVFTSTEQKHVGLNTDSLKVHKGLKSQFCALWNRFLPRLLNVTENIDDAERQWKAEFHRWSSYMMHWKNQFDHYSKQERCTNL

Row | SMILES | Selectivity Index (SI) (AChE) [1] | IC50 [1] [nM] | IC50 [2] [nM] | ABTS Inhibition % ([3]; 0.0312 mg/mL) [%] | ABTS Inhibition % ([3]; 0.0625 mg/mL) [%] | ABTS Inhibition % ([3]; 0.125 mg/mL) [%] | ABTS Inhibition % ([3]; 0.25 mg/mL) [%] | ABTS Inhibition % ([3]; 0.5 mg/mL) [%]
1 | O=C(/C=C/c1ccccc1)/C=C/c1cc[n+](Cc2ccc(Br)cc2)cc1 [Compound 7c, 1–(4-Bromobenzyl)-4-(1E,4E)-3-oxo-5-phenylpenta-1,4-dien-1-yl)pyridin-1-ium bromide] | 3 | 280 ± 0.2 | – | – | – | – | – | –
2 | Cc1ccc(C[n+]2ccc(/C=C/C(=O)/C=C/c3ccccc3)cc2)cc1 [Compound 7d, 1–(4-Methylbenzyl)-4-(1E,4E)-3-oxo-5-phenylpenta-1,4-dien-1-yl)pyridin-1-ium bromide] | 4 | 1120 ± 0.14 | 4500 ± 73 | – | – | – | – | –
3 | O=C(/C=C/c1ccccc1)/C=C/c1cc[n+](Cc2ccc([N+](=O)[O-])cc2)cc1 [Compound 7e, 1–(4-Nitrobenzyl)-4-(1E,4E)-3-oxo-5-phenylpenta-1,4-dien-1-yl)pyridin-1-ium bromide] | 5 | 800 ± 0.12 | 3900 ± 52 | – | – | – | – | –
4 | COc1cc(/C=C/C(=O)/C=C/c2cc[n+](Cc3ccc(Br)cc3)cc2)ccc1O [Compound 7h, 1–(4-Bromobenzyl)-4-(1E,4E)-5–(4-hydroxy-3-methoxyphenyl)-3-oxopenta-1,4-dien-1-yl)pyridin-1-ium bromide] | 10 | 710 ± 0.16 | 6360 ± 106 | – | – | – | – | –
5 | COc1cc(/C=C/C(=O)/C=C/c2cc[n+](Cc3ccc(C)cc3)cc2)ccc1O [Compound 7i, 4-(1E,4E)-5–(4-Hydroxy-3-methoxyphenyl)-3-oxopenta-1,4-dien-1-yl)-1–(4-methylbenzyl)pyridin-1-ium bromide] | 3 | 220 ± 0.17 | – | – | – | – | – | –
6 | COc1cc(/C=C/C(=O)/C=C/c2cc[n+](Cc3ccc([N+](=O)[O-])cc3)cc2)ccc1O [Compound 7j, 4-(1E,4E)-5–(4-Hydroxy-3-methoxyphenyl)-3-oxopenta-1,4-dien-1-yl)-1–(4-nitrobenzyl)pyridin-1-ium bromide] | – | 230 ± 0.19 | 1400 ± 83 | – | – | – | – | –
7 | O=C(/C=C/c1ccccc1)/C=C/c1ccc[n+](Cc2ccc(Br)cc2)c1 [Compound 8c, 1–(4-Bromobenzyl)-3-(1E,4E)-3-oxo-5-phenylpenta-1,4-dien-1-yl)pyridin-1-ium bromide] | 1 | 1160 ± 0.17 | – | – | – | – | – | –
8 | Cc1ccc(C[n+]2cccc(/C=C/C(=O)/C=C/c3ccccc3)c2)cc1 [Compound 8d, 1–(4-Methylbenzyl)-3-(1E,4E)-3-oxo-5-phenylpenta-1,4-dien-1-yl)pyridin-1-ium bromide] | 4 | 630 ± 0.2 | 2500 ± 79 | – | – | – | – | –
9 | O=C(/C=C/c1ccccc1)/C=C/c1ccc[n+](Cc2ccc([N+](=O)[O-])cc2)c1 [Compound 8e, 1–(4-Nitrobenzyl)-3-(1E,4E)-3-oxo-5-phenylpenta-1,4-dien-1-yl)pyridin-1-ium bromide] | 2 | – | 2700 ± 63 | – | – | – | – | –
10 | COc1cc(/C=C/C(=O)/C=C/c2ccc[n+](Cc3ccc(Br)cc3)c2)ccc1O [Compound 8h, 1–(4-Bromobenzyl)-3-(1E,4E)-5–(4-hydroxy-3-methoxyphenyl)-3-oxopenta-1,4-dien-1-yl)pyridin-1-ium bromide] | 3 | 630 ± 0.22 | 1800 ± 121 | – | – | – | – | –
11 | COc1cc(/C=C/C(=O)/C=C/c2ccc[n+](Cc3ccc(C)cc3)c2)ccc1O [Compound 8i, 3-(1E,4E)-5–(4-Hydroxy-3-methoxyphenyl)-3-oxopenta-1,4-dien-1-yl)-1–(4-methylbenzyl)pyridin-1-ium bromide] | 11 | 270 ± 21 | 2500 ± 100 | – | – | – | – | –
12 | Cc1c(C)c2c(c(C)c1O)CCC(C)(C(=O)O)O2 (centres unmarked) [Trolox, reference compound] | – | – | – | 9.3 ± 1.2 | 24.7 ± 1.2 | 51.0 ± 2.3 | 91.5 ± 1.8 | 93.9 ± 0.1
13 | Cc1c(C)c2c(c(C)c1O)CC[C@@](C)(CCC[C@H](C)CCC[C@H](C)CCCC(C)C)O2 [α-tocopherol, reference compound] | – | – | – | 6.9 ± 2.3 | 15.9 ± 1.0 | 29.7 ± 1.3 | 56.4 ± 0.72 | 90.2 ± 0.04
